Common to all, as to experiment: automated planar patch-clamp, whole-cell peak current
Common to all, as to format: cell-based
(In general: In patch-clamp work, channel activity is measured electrically.)

Test [1] has as its target T1, NaV1.2 (Homo sapiens, UniProt Q99250).
T1 construct: gene SCN2A; full-length channel, stably expressed in HEK293T cells; splice form and beta subunits not mentioned
The note with it: holding -80 mV, 200 ms at -120 mV then test pulse to 0 mV every 2 s; 5 min exposure, cumulative 0.1-100 μM; 0.1% DMSO; pH 7.4; 27°C; n=6. The text has this: automated planar patch-clamp, whole-cell peak current on NaV1.2

The target of test [2] is T2, NaV1.1 (Homo sapiens, UniProt P35498).
T2 construct: gene SCN1A; full-length channel, stably expressed in HEK293T cells; beta subunits not mentioned
The note with it: holding -80 mV, 200 ms at -120 mV then test pulse to 0 mV every 2 s; 5 min exposure, cumulative 0.1-100 μM; 0.1% DMSO; pH 7.4; 27°C; n=9. The text has this: automated planar patch-clamp, whole-cell peak current on NaV1.1

For test [3], the target named is T3, NaV1.7 (Homo sapiens, UniProt Q15858).
T3 construct: gene SCN9A; full-length channel, stably expressed in HEK293T cells; beta subunits not mentioned
To be noted: holding -80 mV, 200 ms at -120 mV then test pulse to 0 mV every 2 s; 5 min exposure, cumulative 0.1-100 μM; 0.1% DMSO; pH 7.4; 27°C; n=7. From the text: automated planar patch-clamp, whole-cell peak current on NaV1.7

T1 sequence (Q99250 whole entry, canonical isoform): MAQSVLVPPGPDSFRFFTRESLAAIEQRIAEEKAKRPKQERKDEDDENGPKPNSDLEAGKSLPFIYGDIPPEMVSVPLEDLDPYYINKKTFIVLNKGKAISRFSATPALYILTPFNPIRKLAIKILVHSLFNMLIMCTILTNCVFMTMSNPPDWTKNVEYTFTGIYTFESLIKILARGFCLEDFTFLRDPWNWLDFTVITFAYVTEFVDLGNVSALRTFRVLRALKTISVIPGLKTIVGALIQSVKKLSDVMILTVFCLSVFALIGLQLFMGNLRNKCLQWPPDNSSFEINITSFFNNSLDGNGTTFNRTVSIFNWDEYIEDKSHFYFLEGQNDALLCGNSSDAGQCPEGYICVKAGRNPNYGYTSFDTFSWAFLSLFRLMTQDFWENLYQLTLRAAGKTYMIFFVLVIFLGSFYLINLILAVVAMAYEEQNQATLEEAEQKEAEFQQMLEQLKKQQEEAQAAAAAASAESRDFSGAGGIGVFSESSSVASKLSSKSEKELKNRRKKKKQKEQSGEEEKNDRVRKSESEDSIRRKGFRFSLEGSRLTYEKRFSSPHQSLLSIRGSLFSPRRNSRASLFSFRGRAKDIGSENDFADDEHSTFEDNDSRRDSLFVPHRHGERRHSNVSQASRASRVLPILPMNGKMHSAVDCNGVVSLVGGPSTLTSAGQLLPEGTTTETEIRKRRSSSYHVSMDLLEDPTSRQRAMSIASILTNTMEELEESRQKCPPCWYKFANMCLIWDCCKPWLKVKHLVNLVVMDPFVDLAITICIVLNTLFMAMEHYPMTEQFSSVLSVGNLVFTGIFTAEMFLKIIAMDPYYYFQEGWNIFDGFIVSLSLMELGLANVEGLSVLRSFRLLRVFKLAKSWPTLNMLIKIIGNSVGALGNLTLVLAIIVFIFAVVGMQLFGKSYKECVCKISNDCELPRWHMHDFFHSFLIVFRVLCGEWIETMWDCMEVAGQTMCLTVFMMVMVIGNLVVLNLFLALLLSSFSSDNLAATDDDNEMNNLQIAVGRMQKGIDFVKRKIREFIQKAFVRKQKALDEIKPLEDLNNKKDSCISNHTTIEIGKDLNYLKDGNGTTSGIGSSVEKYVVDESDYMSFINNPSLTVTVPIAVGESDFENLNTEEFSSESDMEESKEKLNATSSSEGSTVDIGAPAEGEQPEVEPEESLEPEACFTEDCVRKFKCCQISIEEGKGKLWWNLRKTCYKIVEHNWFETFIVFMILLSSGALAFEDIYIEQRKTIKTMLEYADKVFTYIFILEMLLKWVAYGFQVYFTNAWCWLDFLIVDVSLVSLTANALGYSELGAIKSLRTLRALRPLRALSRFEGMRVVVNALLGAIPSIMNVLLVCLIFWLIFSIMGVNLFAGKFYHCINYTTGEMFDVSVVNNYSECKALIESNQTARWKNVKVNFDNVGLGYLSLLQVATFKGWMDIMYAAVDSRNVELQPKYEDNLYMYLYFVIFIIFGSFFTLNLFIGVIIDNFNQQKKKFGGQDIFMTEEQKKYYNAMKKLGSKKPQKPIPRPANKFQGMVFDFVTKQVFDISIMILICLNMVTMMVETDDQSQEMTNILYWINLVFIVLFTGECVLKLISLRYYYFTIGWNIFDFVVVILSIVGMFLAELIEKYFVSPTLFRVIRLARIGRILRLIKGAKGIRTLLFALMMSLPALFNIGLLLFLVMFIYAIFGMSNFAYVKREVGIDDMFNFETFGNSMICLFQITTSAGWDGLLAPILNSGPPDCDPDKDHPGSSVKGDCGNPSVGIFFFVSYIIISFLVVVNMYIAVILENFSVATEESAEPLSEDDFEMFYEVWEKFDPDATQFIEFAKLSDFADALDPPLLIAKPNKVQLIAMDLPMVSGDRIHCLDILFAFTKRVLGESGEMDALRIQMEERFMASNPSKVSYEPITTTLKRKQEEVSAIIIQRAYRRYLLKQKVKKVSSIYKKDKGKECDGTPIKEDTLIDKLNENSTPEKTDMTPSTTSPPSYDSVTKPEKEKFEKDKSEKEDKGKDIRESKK
T3 sequence (Q15858 whole entry): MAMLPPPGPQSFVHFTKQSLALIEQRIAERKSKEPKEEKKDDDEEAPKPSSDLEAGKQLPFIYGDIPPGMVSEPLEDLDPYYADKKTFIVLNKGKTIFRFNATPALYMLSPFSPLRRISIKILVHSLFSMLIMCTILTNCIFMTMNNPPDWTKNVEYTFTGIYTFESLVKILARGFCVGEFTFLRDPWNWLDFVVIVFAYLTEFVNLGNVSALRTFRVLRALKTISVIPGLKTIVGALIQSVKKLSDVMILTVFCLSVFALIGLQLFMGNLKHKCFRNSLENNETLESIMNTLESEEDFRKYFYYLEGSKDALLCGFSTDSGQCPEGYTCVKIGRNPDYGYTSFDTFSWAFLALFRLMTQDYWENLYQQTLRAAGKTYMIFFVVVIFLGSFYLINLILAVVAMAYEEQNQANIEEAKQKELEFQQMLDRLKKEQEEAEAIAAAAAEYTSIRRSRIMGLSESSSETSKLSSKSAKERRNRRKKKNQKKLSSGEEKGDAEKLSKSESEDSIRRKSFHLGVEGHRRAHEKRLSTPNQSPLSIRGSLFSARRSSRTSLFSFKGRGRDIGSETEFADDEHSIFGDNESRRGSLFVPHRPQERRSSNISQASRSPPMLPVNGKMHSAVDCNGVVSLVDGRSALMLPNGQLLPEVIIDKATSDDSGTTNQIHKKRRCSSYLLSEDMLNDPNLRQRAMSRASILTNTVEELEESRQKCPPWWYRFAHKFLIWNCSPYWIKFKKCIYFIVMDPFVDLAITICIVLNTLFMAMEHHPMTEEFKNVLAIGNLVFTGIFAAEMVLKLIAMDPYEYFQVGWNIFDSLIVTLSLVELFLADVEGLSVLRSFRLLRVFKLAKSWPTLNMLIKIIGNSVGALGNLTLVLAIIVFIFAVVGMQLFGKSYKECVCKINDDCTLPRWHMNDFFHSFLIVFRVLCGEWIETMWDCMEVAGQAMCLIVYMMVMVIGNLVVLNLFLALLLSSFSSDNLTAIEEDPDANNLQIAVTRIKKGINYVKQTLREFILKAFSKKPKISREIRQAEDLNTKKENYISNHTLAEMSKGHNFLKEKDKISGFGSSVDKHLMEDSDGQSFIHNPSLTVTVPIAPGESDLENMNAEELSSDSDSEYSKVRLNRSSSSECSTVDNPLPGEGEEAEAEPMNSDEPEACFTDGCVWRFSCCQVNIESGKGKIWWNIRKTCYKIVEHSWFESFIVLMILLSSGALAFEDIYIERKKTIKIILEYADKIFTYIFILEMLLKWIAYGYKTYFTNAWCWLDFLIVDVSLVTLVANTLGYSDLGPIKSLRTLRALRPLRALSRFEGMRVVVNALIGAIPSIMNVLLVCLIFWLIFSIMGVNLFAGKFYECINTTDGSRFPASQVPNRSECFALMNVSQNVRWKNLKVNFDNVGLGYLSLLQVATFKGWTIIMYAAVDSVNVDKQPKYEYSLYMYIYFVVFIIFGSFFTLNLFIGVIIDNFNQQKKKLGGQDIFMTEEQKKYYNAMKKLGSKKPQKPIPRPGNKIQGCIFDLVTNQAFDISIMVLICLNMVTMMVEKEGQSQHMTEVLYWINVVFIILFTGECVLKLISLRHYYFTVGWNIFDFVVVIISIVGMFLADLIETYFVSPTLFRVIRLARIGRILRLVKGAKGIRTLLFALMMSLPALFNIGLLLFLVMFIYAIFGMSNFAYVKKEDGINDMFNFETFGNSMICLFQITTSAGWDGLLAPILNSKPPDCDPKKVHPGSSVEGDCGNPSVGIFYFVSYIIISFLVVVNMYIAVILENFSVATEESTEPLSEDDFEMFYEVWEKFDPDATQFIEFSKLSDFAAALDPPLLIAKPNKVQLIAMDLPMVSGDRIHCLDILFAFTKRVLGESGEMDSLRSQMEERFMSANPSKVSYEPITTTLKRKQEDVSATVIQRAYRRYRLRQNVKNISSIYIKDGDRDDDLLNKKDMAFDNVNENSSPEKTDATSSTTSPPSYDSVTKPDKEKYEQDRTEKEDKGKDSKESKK

What is called IC50 is the concentration that inhibits the measured activity by half. Lower therefore signals inhibition by little substance. For the compound `C=C(C)[C@@H]1CCC(C)=C[C@H]1c1c(O)cc(CCCCC)cc1O` [CBD], the figures for the IC50 in test [1], in test [2] and in test [3] were 18.4 ± 2.6 µM, 18.5 ± 2.2 µM and 11.9 ± 2.2 µM, respectively.

For the origin of these results see PMC9185959, “A nutraceutical product, extracted from Cannabis sativa, modulates voltage-gated sodium channel function” (Journal of Cannabis Research, 2022).
